The target in this experiment is T1, Cbl-b (Homo sapiens, UniProt Q13191).
T1 construct: Cbl-b-HiBit KI Jurkat Cells were purchased from Promega; host or cells: Cbl-b-HiBiT knock-in Jurkat cells
Nature of the experiment: Cbl-b Degradation Method B (Nano-Glo HiBiT lytic detection). It counts as cell-based. As to conditions: Cbl-b-HiBit KI Jurkat Cells, incubated at least 6-24 hours; for DC50: half maximal degradation, read-out: Cbl-b Degredation Method B IC50; for Dmax: maximum degradation observed, read-out: Cbl-b Degredation Method B Dmax (%). In short, it runs like this:
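Cbl-b-HiBiT knock-in Jurkat cells (20,000/well) were treated after ~24 h plating with an 11-point 1:3 series for 6-24 h at 37° C. Remaining Cbl-b measured by Nano-Glo HiBiT lytic luminescence. DC50 and Dmax expressed as % of control.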
A general note: With HiBiT, luminescence reflects the tagged protein that the partner subunit can reach.

T1 sequence (Q13191 whole entry): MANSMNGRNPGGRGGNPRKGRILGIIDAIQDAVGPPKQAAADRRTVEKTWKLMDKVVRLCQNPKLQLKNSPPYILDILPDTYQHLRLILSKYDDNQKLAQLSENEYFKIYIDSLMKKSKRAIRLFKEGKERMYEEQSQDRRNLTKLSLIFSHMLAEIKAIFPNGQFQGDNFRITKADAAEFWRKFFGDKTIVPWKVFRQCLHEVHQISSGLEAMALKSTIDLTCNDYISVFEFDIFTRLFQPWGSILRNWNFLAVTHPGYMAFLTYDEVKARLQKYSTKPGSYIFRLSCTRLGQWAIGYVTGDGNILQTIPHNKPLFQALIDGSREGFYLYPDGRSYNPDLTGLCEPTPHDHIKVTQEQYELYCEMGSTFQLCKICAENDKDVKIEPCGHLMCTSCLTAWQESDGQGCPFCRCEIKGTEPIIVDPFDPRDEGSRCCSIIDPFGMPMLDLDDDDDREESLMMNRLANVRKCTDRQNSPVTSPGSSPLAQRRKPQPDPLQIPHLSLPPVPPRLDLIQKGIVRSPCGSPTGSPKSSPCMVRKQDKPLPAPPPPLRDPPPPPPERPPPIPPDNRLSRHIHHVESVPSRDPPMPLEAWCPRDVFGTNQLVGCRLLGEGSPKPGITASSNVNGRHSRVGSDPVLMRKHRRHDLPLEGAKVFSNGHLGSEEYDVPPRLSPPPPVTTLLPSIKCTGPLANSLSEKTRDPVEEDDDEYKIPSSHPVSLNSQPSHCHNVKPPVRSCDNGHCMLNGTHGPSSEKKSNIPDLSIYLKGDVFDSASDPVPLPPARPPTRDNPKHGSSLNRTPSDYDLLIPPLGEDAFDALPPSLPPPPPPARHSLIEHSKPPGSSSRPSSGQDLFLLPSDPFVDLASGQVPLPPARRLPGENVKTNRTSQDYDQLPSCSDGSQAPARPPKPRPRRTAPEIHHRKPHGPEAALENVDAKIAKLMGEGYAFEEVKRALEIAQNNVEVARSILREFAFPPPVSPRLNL

Consider `Cn1cnnc1C[C@]1(c2cccc(N3Cc4c(cc(CN5CCN(C[C@H]6CC[C@H](OC7CCN(c8cccc(C(=O)NC9CCC(=O)NC9=O)c8)CC7)CC6)CC5)cc4C(F)(F)F)C3=O)c2)C[C@H](C#N)C1` (stereo partly shown) [Example 198, N-(2,6-dioxopiperidin-3-yl)-3-(4-{[(1r,4r)-4-({4-[(3-oxo-2-{3-[(1r,3r)-3-cyano-1-[(4-methyl-4H-1,2,4-triazol-3-yl)methyl]cyclobutyl]phenyl}-7-(trifluoromethyl)-2,3-dihydro-1H-isoindol-5-yl)methyl]piperazin-1-yl}methyl)cyclohexyl]oxy}piperidin-1-yl)benzamide], for which the DC50 fell in the range of 5 to 50 nM and the maximal degradation (Dmax) was under 35%. Turning to `Cn1cnnc1C[C@]1(c2cccc(N3Cc4c(cc(CN5CCN(C[C@H]6CC[C@H](OC7CCN(c8ccnc(C(=O)NC9CCC(=O)NC9=O)c8)CC7)CC6)CC5)cc4C(F)(F)F)C3=O)c2)C[C@H](C#N)C1` (stereo partly shown) [Example 200, N-(2,6-dioxopiperidin-3-yl)-4-(4-{[(1r,4r)-4-({4-[(3-oxo-2-{3-[(1r,3r)-3-cyano-1-[(4-methyl-4H-1,2,4-triazol-3-yl)methyl]cyclobutyl]phenyl}-7-(trifluoromethyl)-2,3-dihydro-1H-isoindol-5-yl)methyl]piperazin-1-yl}methyl)cyclohexyl]oxy}piperidin-1-yl)pyridine-2-carboxamide], the DC50 is over 500 nM.

For `Cn1cnnc1C[C@]1(c2cccc(N3Cc4c(cc(CN5CCN(C[C@H]6CC[C@H](OC7CCN(c8ccc(C9CCC(=O)NC9=O)c(F)c8)CC7)CC6)CC5)cc4C(F)(F)F)C3=O)c2)C[C@H](C#N)C1` (stereo partly shown) [Example 201, (1r,3r)-3-[(4-methyl-4H-1,2,4-triazol-3-yl)methyl]-3-(3-{1-oxo-6-[(4-{[(1r,4r)-4-({1-[4-(2,6-dioxopiperidin-3-yl)-3-fluorophenyl]piperidin-4-yl}oxy)cyclohexyl]methyl}piperazin-1-yl)methyl]-4-(trifluoromethyl)-2,3-dihydro-1H-isoindol-2-yl}phenyl)cyclobutane-1-carbonitrile], the DC50 is over 500 nM.

`Cn1cnnc1C[C@]1(c2cccc(N3Cc4c(cc(CN5CCN(C[C@H]6CC[C@H](OC7CCN(c8ccc(F)c(C(=O)NC9CCC(=O)NC9=O)c8)CC7)CC6)CC5)cc4C(F)(F)F)C3=O)c2)C[C@H](C#N)C1` (stereo partly shown) [Example 202, N-(2,6-dioxopiperidin-3-yl)-2-fluoro-5-(4-{[(1r,4r)-4-({4-[(3-oxo-2-{3-[(1r,3r)-3-cyano-1-[(4-methyl-4H-1,2,4-triazol-3-yl)methyl]cyclobutyl]phenyl}-7-(trifluoromethyl)-2,3-dihydro-1H-isoindol-5-yl)methyl]piperazin-1-yl}methyl)cyclohexyl]oxy}piperidin-1-yl)benzamide]: the DC50 was over 500 nM.

For the compound `Cn1cnnc1C[C@]1(c2cccc(N3Cc4c(cc(CN5CCN(C[C@H]6CC[C@H](OC7CCN(c8ccc(C9CCC(=O)NC9=O)cc8)CC7)CC6)CC5)cc4C(F)(F)F)C3=O)c2)C[C@H](C#N)C1` (stereo partly shown) [Example 206, (1r,3r)-3-[(4-methyl-4H-1,2,4-triazol-3-yl)methyl]-3-(3-{1-oxo-6-[(4-{[(1r,4r)-4-({1-[4-(2,6-dioxopiperidin-3-yl)phenyl]piperidin-4-yl}oxy)cyclohexyl]methyl}piperazin-1-yl)methyl]-4-(trifluoromethyl)-2,3-dihydro-1H-isoindol-2-yl}phenyl)cyclobutane-1-carbonitrile], the DC50 was over 500 nM.

Consider `Cn1cnnc1CC1(c2cccc(-n3cc4ccc(CN5CCN(C[C@H]6CC[C@H](OC7CCN(c8ccc9c(c8F)CN(C8CCC(=O)NC8=O)C9=O)CC7)CC6)CC5)cc4n3)c2)COC1` (stereo partly shown) [Example 207, 3-[4-fluoro-1-oxo-5-(4-{[(1r,4r)-4-[(4-{[2-(3-{3-[(4-methyl-4H-1,2,4-triazol-3-yl)methyl]oxetan-3-yl}phenyl)-2H-indazol-6-yl]methyl}piperazin-1-yl)methyl]cyclohexyl]oxy}piperidin-1-yl)-2,3-dihydro-1H-isoindol-2-yl]piperidine-2,6-dione], for which the DC50 is over 500 nM. Still for that read-out and setting: as for `Cn1cnnc1C[C@]1(c2cccc(N3Cc4c(cc(CN5CCN(C[C@H]6CC[C@H](OC7CCN(c8ccc(C9CCC(=O)NC9=O)cn8)CC7)CC6)CC5)cc4C(F)(F)F)C3=O)c2)C[C@H](C#N)C1` (stereo partly shown) [Example 210, (1r,3r)-3-[(4-methyl-4H-1,2,4-triazol-3-yl)methyl]-3-(3-{1-oxo-6-[(4-{[(1r,4r)-4-({1-[5-(2,6-dioxopiperidin-3-yl)pyridin-2-yl]piperidin-4-yl}oxy)cyclohexyl]methyl}piperazin-1-yl)methyl]-4-(trifluoromethyl)-2,3-dihydro-1H-isoindol-2-yl}phenyl)cyclobutane-1-carbonitrile], the figure is over 500 nM; as for `Cn1cnnc1C[C@]1(c2cccc(N3Cc4c(cc(CN5CCN(C[C@H]6CC[C@H](OC7CCN(c8ccc(C9CCC(=O)NC9=O)nc8)CC7)CC6)CC5)cc4C(F)(F)F)C3=O)c2)C[C@H](C#N)C1` (stereo partly shown) [Example 213, (1r,3r)-3-[(4-methyl-4H-1,2,4-triazol-3-yl)methyl]-3-(3-{1-oxo-6-[(4-{[(1r,4r)-4-({1-[6-(2,6-dioxopiperidin-3-yl)pyridin-3-yl]piperidin-4-yl}oxy)cyclohexyl]methyl}piperazin-1-yl)methyl]-4-(trifluoromethyl)-2,3-dihydro-1H-isoindol-2-yl}phenyl)cyclobutane-1-carbonitrile], over 500 nM. For the compound `CC1c2nc(N3CCC(O[C@H]4CC[C@H](CN5CCN(Cc6cc(C(F)(F)F)c7cn(-c8cccc(C9(Cc%10nncn%10C)COC9)c8)nc7c6)CC5)CC4)CC3)ccc2C(=O)N1C1CCC(=O)NC1=O` (stereo partly shown) [Example 216, 3-[7-methyl-5-oxo-2-(4-{[(1r,4r)-4-[(4-{[2-(3-{3-[(4-methyl-4H-1,2,4-triazol-3-yl)methyl]oxetan-3-yl}phenyl)-4-(trifluoromethyl)-2H-indazol-6-yl]methyl}piperazin-1-yl)methyl]cyclohexyl]oxy}piperidin-1-yl)-5H,6H,7H-pyrrolo[3,4-b]pyridin-6-yl]piperidine-2,6-dione], the DC50 was under 5 nM and the Dmax is under 35%. For `CC1c2nc(N3CCC(O[C@H]4CC[C@@H](CN5C[C@@H]6C[C@H]5CN6Cc5cc6c(c(C(F)(F)F)c5)CN(c5cccc(C7(Cc8nncn8C)CC7)c5)C6=O)CC4)CC3)ccc2C(=O)N1C1CCC(=O)NC1=O` (stereo partly drawn) [Example 218, 3-[7-methyl-5-oxo-2-(4-{[(1r,4r)-4-{[(1S,4S)-5-{[2-(3-{1-[(4-methyl-4H-1,2,4-triazol-3-yl)methyl]cyclopropyl}phenyl)-3-oxo-7-(trifluoromethyl)-2,3-dihydro-1H-isoindol-5-yl]methyl}-2,5-diazabicyclo[2.2.1]heptan-2-yl]methyl}cyclohexyl]oxy}piperidin-1-yl)-5H,6H,7H-pyrrolo[3,4-b]pyridin-6-yl]piperidine-2,6-dione], in that order: 5 to 50 nM and 35 to 70%.

What is called Dmax is the largest share of the target that was removed.

(Values after patent US20260184710A1, “CASITAS B-LINEAGE LYMPHOMA PROTOONCOGENE B (CBL-B) DEGRADING COMPOUNDS AND ASSOCIATED METHODS OF USE” (Arvinas Operations, Inc., priority 2022, published 2026).)
